Laboratory results published in patent publication US8513203B2, “Composition and method thereof” (Indus Biotech Private Limited, priority 2011, dated 2013).

Test system: FCA induced arthritis
Assay: FCA induced arthritis, non-injected paw volume
Format: in vivo, rat
Settings: 10 mg/kg
Description: Anti-arthritis activity was studied by injecting Freund's complete adjuvant (FCA) in rat paw and measuring the edema formation and percentage inhibition of paw volume in the non-injected paw.
Male wistar rats weighing between 190-250 g were injected with 0.1 ml of FCA into the sub planter region of left hind paw. 0.1 ml of FCA solution consist of 6 mg of Complete Fraction of Mycobacterium Butyrium (Difco) being Suspended in heavy Paraffin Oil (Merck). Local oedema was produced after few hrs. Treatment with the test compound was carried out from day 13 to day 21 after FCA injection. Volume of the non-injected hind paw was recorded using plethysmometer (UGO Basile 7140).
The percentage inhibition of inflammation in the non-injected paw was measured as difference in the mean paw volume of the FCA control group to that of the treated animals.

## Cc1ccc(-c2cc(C(F)(F)F)nn2-c2ccc(S(N)(=O)=O)cc2)cc1 [Celecoxib]
Day 18
  Percentage reduction of FCA induced arthritis: 58.97 ± 35.93 %
Day 21
  Percentage reduction of FCA induced arthritis: 81.24 ± 22.35 %
